{"source": "paper PMC6491884", "about": "“Synthesis and Biological Evaluation of 4β-N-Acetylamino Substituted Podophyllotoxin Derivatives as Novel Anticancer Agents” (Frontiers in Chemistry, 2019)", "key": {"[1]": {"test_system": "EC9706 (human esophageal squamous cell carcinoma)", "test": "MTT growth inhibition assay, EC9706", "format": "cell-based", "conditions": "EC9706, 48 h, read-out: IC50 (μM) EC9706", "method": "(§1) Target compounds 12a–t were evaluated for in vitro cytotoxicity against four human tumor cell lines, including H460 (non-small cell lung carcinoma), HeLA (human cervical carcinoma), EC9706 (human esophageal squamous cell carcinoma), and T24 (human bladder carcinoma), using HaCaT (human immortalized epidermal cells) as a human non-malignant cell line. Etoposide (3) was included as a positive control. The screening procedure was based on the 3-(4, 5-dimethylthiazol-2-yl)-2, 5-diphenyltetrazoliun bromide (MTT) growth inhibition assay with triplicate experiments, and the results are summarized in Table 1.\n(§2) The four human cancer cell lines and a normal human epidermal cell line of the screening panel, including H460 (human non-small cell lung carcinoma), HeLA (human cervical carcinoma), EC9706 (human esophageal squamous cell carcinoma), T24 (human bladder carcinoma), and HaCaT (human immortalized epidermal cells), were purchased from American Type Culture Collection (ATCC, Manassas, VA, U.S.A.). H460, EC9706, and T24 were maintained in RPMI 1640 medium containing 10% Fetal Bovine Serum, 100 units/ml penicillin, 100 μg/ml streptomycin under humidified incubator with 5% CO2 atmosphere at 37°C. HeLA and HaCaT were maintained in Dulbecco′s […] (DMEM) supplemented with 10% Fetal Bovine Serum 100 units/ml penicillin, 100 μg/ml streptomycin in a humidified incubator and 5% CO2 atmosphere at 37°C. Logarithmically growing cells were used for the following experiments.\n(§3) The cytotoxicity of the synthesized compounds 12a–t against a panel of human cell lines was determined by the 3-(4,5-dimethylthiazol-2-yl)-2,5-diphenyltetrazoliun bromide (MTT) growth inhibition assay. The five human cell lines were, respectively, plated in 96-well-culture plates at the density of 1 × 10^5 cells per well and incubated for 24 h. Cells were exposed to different concentrations of synthetic podophyllotoxin derivatives for 48 h. MTT was added with a dose of 5 mg/mL in phosphate-buffered saline. After incubation for 4 h at 37°C, the purple formazan crystals were dissolved with […] dimethyl sulfoxide and the absorbance was measured at 570 nm in an ELISA reader. Antiproliferative activity was expressed using the IC50 value defined as the concentration of synthetic podophyllotoxin derivatives inhibiting cell proliferation by 50%. The cell viability ratio was calculated by the following formula: cell viability ratio (%) = OD treated /OD control × 100% (Ma et al., [2014])."}, "[2]": {"test_system": "HeLA (human cervical carcinoma)", "test": "MTT growth inhibition assay, HeLA", "format": "cell-based", "conditions": "Homo sapiens, 48 h, read-out: IC50 (μM) HeLA, MTT, 48 h, n = 3", "method": "as §1, §2, §3"}, "[3]": {"test_system": "T24 (human bladder carcinoma)", "test": "MTT growth inhibition assay, T24", "format": "cell-based", "conditions": "T24, 48 h, read-out: IC50 (μM) T24, MTT, 48 h, n = 3", "method": "as §1, §2, §3"}, "[4]": {"test_system": "H460 (human non-small cell lung carcinoma)", "test": "MTT growth inhibition assay, H460", "format": "cell-based", "conditions": "NCI-H460, 48 h, read-out: IC50 (μM) H460", "method": "as §1, §2, §3"}, "[5]": {"test_system": "HaCaT (human immortalized epidermal cells)", "test": "MTT growth inhibition assay, HaCaT normal cells", "format": "cell-based", "conditions": "48 h, read-out: IC50 (μM) HaCaT, MTT, 48 h, n = 3, normal cell line", "method": "as §1, §2, §3"}, "T24 cells [6]": {"test_system": "T24 cells", "test": "Cell cycle distribution analysis (FACS, propidium iodide), T24", "format": "cell-based, human", "method": "(§4) Flow cytometry analysis was carried out to evaluate cell cycle changes and gain further insight into the mode of action with respect to the anti-proliferative effect of compound 12g. HeLA and T24 cancer cells were treated with the selected compound 12g for […] at three different gradient concentrations. The cell cycle accumulation was examined by the propidium iodide staining and cytometric quantification after the cancer cells were cultured for 24 h.\nTo understand the cell cycle effect of the synthesized analogs, cell cycle distribution analysis was performed by FACS (Becton Dickinson, San Jose, CA, USA). […] After treatment, the cells were washed once with PBS and fixed with 70% ice-cold ethanol at […] for overnight. Ethanol was removed by Centrifugation. The cells were stained with a solution containing 0.1% Triton-X 100 (Sigma), 0.2 mg/mL RNase (Sigma), and […] propidium iodide (PI, Sigma) in the dark for 30 min at room temperature. Then, cell cycle distribution was analyzed by using a FACS can flow cytometer (Chen et al., [2013])."}, "HeLA cells [7]": {"test_system": "HeLA cells", "test": "Cell cycle distribution analysis (FACS, propidium iodide), HeLA", "format": "cell-based, human", "conditions": "24 h", "method": "as §4\nTo understand the cell cycle effect of the synthesized analogs, cell cycle distribution analysis was performed by FACS (Becton Dickinson, San Jose, CA, USA). T24 and HeLA cells were treated with compound 12g for 24 h at 37°C with concentrations of 0.5/1.0/2.0 and 0.75/1.5/3.0 μM, respectively. After treatment, the cells were washed once with PBS and fixed with 70% ice-cold ethanol at […] for overnight. Ethanol was removed by Centrifugation. The cells were stained with a solution containing 0.1% Triton-X 100 (Sigma), 0.2 mg/mL RNase (Sigma), and […] propidium iodide (PI, Sigma) in the dark for 30 min at room temperature. Then, cell cycle distribution was analyzed by using a FACS can flow cytometer (Chen et al., [2013])."}, "T24 cells [8]": {"test_system": "T24 cells", "test": "Hoechst 33258 staining, T24", "format": "cell-based, human", "conditions": "T24, 0.5/1.0/2.0 μM, 24 h, vs vehicle 0.1% DMSO", "method": "(§5) Apoptosis is one of the major pathways leading to the process of cell death. Visualization of chromatin condensation as well as nuclear shrinking and fragmentation—known as classic characteristics of apoptosis—was carried out in the presence of a representative compound 12g by staining T24 and HeLA cells with Hoechst 33258, by which apoptosis was confirmed as the cause of reduced cell viability.\n(§6) T24 and HeLA cells were seeded at a density of 3 × 10^4 cells per well and cultured in 6 well-plates on a cover slip for 24 h at 37°C. Compound 12g treated T24 and HeLA cancer cells for 24 h at 37°C with concentrations of 0.5/1.0/2.0 and 0.75/1.5/3.0 μM, respectively. Afterward, the treated cells were fixed with 4% paraformaldehyde (PFA) for 30 min and stained with 5 μg/mL Hoechst 33258 (bis-benzimide; KeyGEN Bio TECH, China) for 30 min. Nuclei were stained with Hoechst 33258 to examine chromatin condensation or nuclear fragmentation, morphological characteristics of apoptosis. After the cells were washed twice with PBS, the cover slip was inverted and placed on a glass slide and mounted. Apoptotic cells with fluorescence of the soluble DNA fragments were detected directly and photographed under a phase contrast microscope (OLYMPUS IX51, Japan) in a Varian Fluorometer at an excitation wavelength of 365 nm and emission wavelength of 460 nm (Shareef et al., [2015])."}, "HeLA cells [9]": {"test_system": "HeLA cells", "test": "Hoechst 33258 staining, HeLA", "format": "cell-based, human", "conditions": "0.75/1.5/3.0 μM, 24 h, vs vehicle 0.1% DMSO", "method": "as §5, §6"}}}
{"smiles": "CCCN(CCC)CC(=O)NC1c2cc3c(cc2C(c2cc(OC)c(O)c(OC)c2)C2C(=O)OCC12)OCO3", "note": "(stereo not shown) [Compound 12g]", "values": [{"measurement": "IC50", "setting": "[1]", "value": "> 50", "unit": "µM"}, {"measurement": "IC50", "setting": "[2]", "value": "2.34 ± 0.39", "unit": "µM"}, {"measurement": "IC50", "setting": "[3]", "value": "2.98 ± 0.26", "unit": "µM"}, {"measurement": "IC50", "setting": "[4]", "value": "24.2 ± 0.77", "unit": "µM"}, {"measurement": "IC50", "setting": "[5]", "value": "> 50", "unit": "µM"}, {"measurement": "accumulation of T24 cells at G2/M phase", "setting": "T24 cells [6]; T24, 0.75 μM as printed in text", "value": 65.15, "unit": "%"}, {"measurement": "accumulation of T24 cells at G2/M phase", "setting": "T24 cells [6]; T24, 1.5 μM as printed in text", "value": 62.76, "unit": "%"}, {"measurement": "accumulation of T24 cells at G2/M phase", "setting": "T24 cells [6]; T24, 3.0 μM as printed in text", "value": 79.87, "unit": "%"}, {"measurement": "Cell cycle phase (%) G2/M", "setting": "HeLA cells [7]; 0.75 uM", "value": 79.69, "unit": "%"}, {"measurement": "Cell cycle phase (%) G2/M", "setting": "HeLA cells [7]; 1.5 uM", "value": 89.18, "unit": "%"}, {"measurement": "Cell cycle phase (%) G2/M", "setting": "HeLA cells [7]; 3 uM", "value": 90.66, "unit": "%"}, {"measurement": "apoptotic morphology (Hoechst 33258 staining)", "setting": "T24 cells [8]", "value": "markedly increased chromatin condensation, nuclear fragmentation and morphological changes"}, {"measurement": "apoptotic morphology (Hoechst 33258 staining)", "setting": "HeLA cells [9]", "value": "markedly increased chromatin condensation, nuclear fragmentation and morphological changes"}]}
